Measured values published in PMC8476755 (Frontiers in Chemistry, 2021).
Where a chain is given by its changes, count along the chain named. Where two headings read alike, the source gives them in different places.

Legend:
BGT1 Q299L = target: T1, BGT1 Q299L (Homo sapiens, UniProt P48065, Q299L); assay: [3H]GABA uptake assay, transient expression in tsA201 cells; format: cell-based; details: for IC50: BGT1 Q299L, tsA201 cells
T1 construct: expressed in transfected cells; host or cells: tsA201 (transformed HEK293), transient
T1 sequence (P48065 1-614 Q299L): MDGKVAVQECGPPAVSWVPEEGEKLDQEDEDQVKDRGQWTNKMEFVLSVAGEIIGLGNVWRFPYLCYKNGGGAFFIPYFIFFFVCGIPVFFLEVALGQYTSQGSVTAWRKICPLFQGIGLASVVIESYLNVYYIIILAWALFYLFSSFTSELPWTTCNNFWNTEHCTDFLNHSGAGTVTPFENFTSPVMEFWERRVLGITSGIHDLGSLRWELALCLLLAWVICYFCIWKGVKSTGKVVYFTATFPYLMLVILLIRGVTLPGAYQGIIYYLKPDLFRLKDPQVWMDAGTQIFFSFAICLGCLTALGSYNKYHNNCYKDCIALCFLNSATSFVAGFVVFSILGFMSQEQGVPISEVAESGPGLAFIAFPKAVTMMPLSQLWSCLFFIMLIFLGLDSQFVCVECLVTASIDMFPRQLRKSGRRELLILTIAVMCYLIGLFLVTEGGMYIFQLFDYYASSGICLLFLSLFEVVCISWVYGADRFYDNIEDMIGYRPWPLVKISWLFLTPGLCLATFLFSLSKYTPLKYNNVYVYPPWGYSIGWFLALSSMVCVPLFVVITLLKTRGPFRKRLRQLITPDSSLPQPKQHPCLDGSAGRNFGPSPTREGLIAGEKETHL
Excerpt: (§1) The residue Q299 in human BGT1 corresponds to leucine in all other GATs (human, rat, mouse), while E52 corresponds to tyrosine in GAT1 (human, rat, mouse) but is conserved among GAT2, GAT3 and BGT1 (human, rat, mouse) (Figure 6A) ([Kickinger et al., 2019]).
FIGURE 6 (A) Pocket alignment of the orthosteric site of the four GAT subtypes colored according to the default ClustalX color scheme ([Larkin et al., 2007]). The pocket was defined as all corresponding GAT residues (15 in total) that are within a distance of 4.5 Å of the co-crystallized ligand leucine in the homologous LeuT crystal structure (PDB ID 2A65) ([Yamashita et al., 2005]) according to the alignment by Kickinger et al. ([Kickinger et al., 2019]). The mutated residues in BGT1 and the corresponding residues in GAT1-3 are indicated by a red box. The numbering of all residues within the orthosteric pocket can be found in the Supplementary Table S1.
(§2) The tsA201 cell line (a transformed HEK293 cell line), the Flp-In CHO cell lines stably expressing human (h) GATs and the HEK293 cell line stably expressing human α1β2γ2 GABAA receptors have been described previously and were cultured accordingly ([Al-Khawaja et al., 2014]; [Falk-Petersen et al., 2020]). The tsA201 cell line used for transient expression of hGATs was transfected with DNA constructs (8 μg per 10 cm plate) using 40 μL PolyFect transfection reagent according to the manufacturer’s protocol (Qiagen).
(§3) Briefly, cells were seeded in white 96-well plates (White Opaque Tissue Culture (TC) plated 96-well Microplate) pre-coated with PDL. Medium was removed on the following day and cells washed with 100 µL/well assay buffer (HBSS supplemented with 20 mM HEPES, 1 mM CaCl2 and 1 mM MgCl2, pH 7.4). […] The cells were washed 3 times with 100 µL/well ice-cold assay buffer, 150 µL/well MicroScint™20 was subsequently added before the plate was shaken for at least 1 h. The plate was counted in a Packard TopCounter microplate scintillation counter (PerkinElmer) for 3 min per well. […] Data presented is the pooled data of at least three independent experiments with three technical replicates if not stated otherwise in figure legends. Concentration–response curves were fitted by non-linear regression to the sigmoidal concentration-response model with GraphPad Prism (version 9.0.0, GraphPad Software, San Diego, CA, United States) as described ([Lie et al., 2020]).

BGT1 E52Y = target: T2, BGT1 E52Y (Homo sapiens, UniProt P48065, E52Y); assay: as above; format: cell-based; details: for IC50: BGT1 E52Y, tsA201 cells
T2 construct: expressed in transfected cells; host or cells: tsA201 (transformed HEK293), transient
T2 sequence (P48065 1-614 E52Y): T1 sequence (P48065 1-614 Q299L) with E52Y, L299Q
Method: as §1, §2, §3

Decrease in inhibitory activity compared to wildtype (BGT1 Q299L; BGT1 Q299L vs BGT1 wt) [times]	IC50 (BGT1 Q299L; read-out: IC50) [µM]	Decrease in inhibitory activity compared to wildtype (BGT1 E52Y; BGT1 E52Y vs BGT1 wt) [times]	IC50 (BGT1 E52Y) [µM]	IC50 (BGT1 Q299L; read-out: pIC50 ± S.E.M. (converted)) [µM]	Structure (SMILES)
32	48	7	11		N[C@@]12CC[C@H](C(=O)O)[C@@H]1C2 [bicyclo-GABA, (1S,2S,5R)-5-aminobicyclo[3.1.0]hexane-2-carboxylic acid]
	59		20	50.1	CN[C@@]12CC[C@H](C(=O)O)[C@@H]1C2 [compound 2]
